One may read the IC50 as the concentration that inhibits the measured activity by half. As a reminder, the IC90 is the concentration needed for an effect of 90%.

Where only a bound is given, the exact number is not on record here.

Common to all, as to assay type: cell-based
Test [1] relates to PRMT5 (SDMA) in HAP1 MTAP-deleted cell line. Description: SDMA in-cell western assay, HAP1 MTAP-deleted cell line. Conditions: for IC50 / IC90: Homo sapiens, SDMA in-cell western, HAP1 MTAP-deleted (MTAP-null) cell line; for Hap1 MTAP intact/deleted ratio: ratio of SDMA in-cell western IC50 in HAP1 MTAP-intact to IC50 in HAP1 MTAP-deleted cell line. The text has this: (§1) HAP1 MTAP-intact is a cell line in which endogenous levels of MTAP are expressed, and HAP1 MTAP-deleted is an MTAP-null cell line.

Test [2] concerns HAP1 MTAP-deleted cell line. Description: viability assay for the MTAP-deleted cell line. Conditions: Homo sapiens.
Test [3] has as its system PRMT5 (SDMA) in HAP1 MTAP-intact cell line. The test is described as follows: SDMA in-cell western assay, HAP1 MTAP-intact cell line. Conditions: Homo sapiens, HAP1 MTAP-intact cell line (endogenous MTAP), read-out: Hap 1 MTAP intact IC50.
Text: as §1

Turning to `COc1ncc(NC(=O)C(=O)N2C[C@@H](C)N(C(=O)C3(C(F)(F)F)CC3)C[C@@H]2c2ccc(F)c(Cl)c2)cc1C(N)=O` [Compound 63, 5-(2-((2S,5R)-2-(3-chloro-4-fluorophenyl)-5-methyl-4-(1-(trifluoromethyl)cyclopropanecarbonyl)piperazin-1-yl)-2-oxoacetamido)-2-methoxynicotinamide], the half-maximal inhibitory concentration (IC50) is 0.005 to 0.05 µM in test [1], 0.1 to 1 µM in test [2] and more than 0.05 µM in test [3]. Also, the 90% effect concentration (IC90) in test [1] fell in the range of 0.075 to 0.125 µM. Also, the “Hap1 MTAP intact/deleted ratio” value in test [1] is given as “A (an IC50 ratio greater than or equal to 30 fold)”.
On to `Cc1cc(NC(=O)C(=O)N2C[C@@H](C)N(C(=O)C3(C)CC3)C[C@@H]2c2ccc(Cl)cc2)cnc1N` [Compound 65], for which, in test [1], the IC50 is less than 0.005 µM, the IC90 is less than 0.075 µM and the “Hap1 MTAP intact/deleted ratio” value was “C (an IC50 ratio of less than 15 fold)”. Further, the IC50 in test [2] was less than 0.1 µM. In test [3], the IC50 was in the range of 0.005 to 0.05 µM.
In the same order, the values of `Cc1cc(NC(=O)C(=O)N2CCN(C(=O)C3(C(F)(F)F)CC3)[C@H](C)[C@H]2c2ccc(F)c(F)c2)cnc1N` [Compound 66] are 0.005 to 0.05 µM, more than 0.125 µM, “A (an IC50 ratio greater than or equal to 30 fold)”, 0.1 to 1 µM and more than 0.05 µM.
For the compound `CCc1cc(NC(=O)C(=O)N2C[C@@H](C)N(C(=O)C(C)C)C[C@@H]2c2cccc(OCCN(C)C)c2)cnc1N` [Compound 67, N-(6-amino-5-ethylpyridin-3-yl)-2-((2S,5R)-2-(3-(2-(dimethylamino)ethoxy)phenyl)-4-isobutyryl-5-methylpiperazin-1-yl)-2-oxoacetamide], in test [1], the IC50 is less than 0.005 µM, the concentration for an effect of 90% (IC90) is less than 0.075 µM and the “Hap1 MTAP intact/deleted ratio” value is “C (an IC50 ratio of less than 15 fold)”. Moreover, the IC50 in test [2] was less than 0.1 µM. The IC50 in test [3] lay in the range of 0.005 to 0.05 µM.
As to `C[C@@H]1CN(C(=O)C(=O)Nc2cncc3cn[nH]c23)[C@@H](c2ccccc2)CN1C(=O)C(C)(C)CN(C)C` [Compound 68, 2-((2S,5R)-4-(3-(dimethylamino)-2,2-dimethylpropanoyl)-5-methyl-2-phenylpiperazin-1-yl)-2-oxo-N-(1H-pyrazolo[4,3-c]pyridin-7-yl)acetamide], in test [1], the IC50 fell in the range of 0.005 to 0.05 µM, the IC90 was in the range of 0.075 to 0.125 µM and the “Hap1 MTAP intact/deleted ratio” value was “A (an IC50 ratio greater than or equal to 30 fold)”. Further, the IC50 in test [2] was 0.1 to 1 µM. Also, the IC50 in test [3] is more than 0.05 µM.
For `COc1ncc(NC(=O)C(=O)N2C[C@@H](C)N(C(=O)C(C)(C)CN(C)C)C[C@@H]2c2ccccc2)cc1C(N)=O` [Compound 69], in that order: 0.005 to 0.05 µM, more than 0.125 µM, “A (an IC50 ratio greater than or equal to 30 fold)”, 0.1 to 1 µM and more than 0.05 µM.
For `CCc1cc(NC(=O)C(=O)N2C[C@@H](C)N(C(=O)C(C)C)C[C@@H]2c2ccc(C)cc2)cnc1N` [Compound 71, N-(6-amino-5-ethylpyridin-3-yl)-2-((2S,5R)-4-isobutyryl-5-methyl-2-(p-tolyl)piperazin-1-yl)-2-oxoacetamide], the IC50 in test [1] was 0.005 to 0.05 µM; in test [2], less than 0.1 µM; in test [3], more than 0.05 µM. In test [1], this compound registered an IC90 of 0.075 to 0.125 µM. The “Hap1 MTAP intact/deleted ratio” value in test [1] is “B (an IC50 ratio greater than or equal to 15 fold but lower than 30 fold)”.
For the compound `C[C@@H]1CN(C(=O)C(=O)Nc2cnc(N)c(C3COC3)c2)[C@@H](c2ccc(F)cc2)CN1C(=O)C1(C(F)(F)F)CC1` [Compound 72, N-(6-amino-5-(oxetan-3-yl)pyridin-3-yl)-2-((2S,5R)-2-(4-fluorophenyl)-5-methyl-4-(1-(trifluoromethyl)cyclopropanecarbonyl)piperazin-1-yl)-2-oxoacetamide], in test [1], the IC50 was in the range of 0.005 to 0.05 µM, the IC90 was in the range of 0.075 to 0.125 µM and the “Hap1 MTAP intact/deleted ratio” value is on record as “A (an IC50 ratio greater than or equal to 30 fold)”. The compound also registered an IC50 in test [2] of less than 0.1 µM. Further, the IC50 in test [3] was more than 0.05 µM.
As to `CCc1cc(NC(=O)C(=O)N2C[C@H](C)N(C(=O)CC3CC3)C[C@H]2c2ccc(F)cc2)cnc1N` [Compound 73, N-(6-amino-5-ethyl-3-pyridyl)-2-[(2R,5S)-4-(2-cyclopropylacetyl)-2-(4-fluorophenyl)-5-methyl-piperazin-1-yl]-2-oxo-acetamide], in test [1], the IC50 lay in the range of 0.005 to 0.05 µM, the concentration for an effect of 90% (IC90) lay within 0.075 to 0.125 µM and the “Hap1 MTAP intact/deleted ratio” value is recorded as “B (an IC50 ratio greater than or equal to 15 fold but lower than 30 fold)”. Moreover, the IC50 in test [2] was less than 0.1 µM. Moreover, in test [3], the IC50 was more than 0.05 µM.
For `Cc1cc(NC(=O)C(=O)N2C[C@@H](C)N(C(=O)C(C)C)C[C@@H]2c2ccc(F)c(Cl)c2)cnc1N` [Compound 74, N-(6-amino-5-methylpyridin-3-yl)-2-((2S,5R)-2-(3-chloro-4-fluorophenyl)-4-isobutyryl-5-methylpiperazin-1-yl)-2-oxoacetamide], in that order: 0.005 to 0.05 µM, 0.075 to 0.125 µM, “A (an IC50 ratio greater than or equal to 30 fold)”, 0.1 to 1 µM and more than 0.05 µM.
As for `CC(C)C(=O)N1C[C@H](c2ccc(F)c(F)c2)N(C(=O)C(=O)Nc2cnc(N)c(C3CC3)c2)C[C@H]1C` [Compound 75, N-(6-amino-5-cyclopropylpyridin-3-yl)-2-((5R)-2-(3,4-difluorophenyl)-4-isobutyryl-5-methylpiperazin-1-yl)-2-oxoacetamide], in test [1], the IC50 was in the range of 0.005 to 0.05 µM, the IC90 is more than 0.125 µM and the “Hap1 MTAP intact/deleted ratio” value is “C (an IC50 ratio of less than 15 fold)”. The half-maximal inhibitory concentration (IC50) in test [2] was less than 0.1 µM. Also, the IC50 in test [3] is more than 0.05 µM.
For `Cc1cc(NC(=O)C(=O)N2C[C@@H](C)N(C(=O)C3(C(F)(F)F)CC3)C[C@@H]2c2ccc(N3CCN(C)CC3)cc2)cnc1N` [Compound 77, N-(6-amino-5-methylpyridin-3-yl)-2-((2S,5R)-5-methyl-2-(4-(4-methylpiperazin-1-yl)phenyl)-4-(1-(trifluoromethyl)cyclopropanecarbonyl)piperazin-1-yl)-2-oxoacetamide], in that order: less than 0.005 µM, less than 0.075 µM, “B (an IC50 ratio greater than or equal to 15 fold but lower than 30 fold)”, less than 0.1 µM and 0.005 to 0.05 µM.
For `Cc1cc(NC(=O)C(=O)N2C[C@@H](C)N(C(=O)C3(C(F)(F)F)CC3)C[C@@H]2c2ccccc2)cnc1N` [Compound 78, N-(6-amino-5-methylpyridin-3-yl)-2-((2S,5R)-5-methyl-2-phenyl-4-(1-(trifluoromethyl)cyclopropanecarbonyl)piperazin-1-yl)-2-oxoacetamide], in that order: 0.005 to 0.05 µM, more than 0.125 µM, “B (an IC50 ratio greater than or equal to 15 fold but lower than 30 fold)”, less than 0.1 µM and more than 0.05 µM.
In the same order, the values of `C[C@@H]1CN(C(=O)C(=O)Nc2cnc(N)c3cn[nH]c23)[C@@H](c2ccc(F)cc2)CN1C(=O)C1(C(F)(F)F)CC1` [Compound 79] are less than 0.005 µM, less than 0.075 µM, “C (an IC50 ratio of less than 15 fold)”, less than 0.1 µM and 0.005 to 0.05 µM.
For the compound `Cc1cc(NC(=O)C(=O)N2C[C@H](C)N(CC(C)C)C[C@H]2c2ccc(F)cc2)cnc1N` [Compound 80, N-(6-amino-5-methyl-3-pyridyl)-2-[(2R,5S)-2-(4-fluorophenyl)-4-isobutyl-5-methyl-piperazin-1-yl]-2-oxo-acetamide], in test [1], the concentration for half-maximal inhibition (IC50) fell in the range of 0.005 to 0.05 µM, the IC90 is more than 0.125 µM and the “Hap1 MTAP intact/deleted ratio” value is on record as “C (an IC50 ratio of less than 15 fold)”. For the same compound, the IC50 in test [2] fell in the range of 0.1 to 1 µM. Besides, in test [3], the IC50 is more than 0.05 µM.
For `CCc1cc(NC(=O)C(=O)N2C[C@@H](C)N(C(=O)C3(C(F)(F)F)CC3)C[C@@H]2c2ccccc2)cnc1N` [Compound 81, N-(6-amino-5-ethylpyridin-3-yl)-2-((2S,5R)-5-methyl-2-phenyl-4-(1-(trifluoromethyl)cyclopropanecarbonyl)piperazin-1-yl)-2-oxoacetamide], the IC50 in test [1] was 0.005 to 0.05 µM; in test [2] it was less than 0.1 µM; in test [3], more than 0.05 µM. In addition, the IC90 in test [1] is 0.075 to 0.125 µM. The “Hap1 MTAP intact/deleted ratio” value in test [1] was “B (an IC50 ratio greater than or equal to 15 fold but lower than 30 fold)”.
As to `COc1ncc(NC(=O)C(=O)N2C[C@@H](C)N(C(=O)C(C)C)C[C@@H]2c2ccc(F)cc2)cc1C(N)=O` [Compound 83, 5-[[2-[(2S,5R)-2-(4-fluorophenyl)-5-methyl-4-(2-methylpropanoyl)piperazin-1-yl]-2-oxo-acetyl]amino]-2-methoxy-pyridine-3-carboxamide], in test [1], the IC50 fell in the range of 0.005 to 0.05 µM, the IC90 fell in the range of 0.075 to 0.125 µM and the “Hap1 MTAP intact/deleted ratio” value is given as “A (an IC50 ratio greater than or equal to 30 fold)”. The compound further had an IC50 in test [2] of 0.1 to 1 µM. The IC50 in test [3] was more than 0.05 µM.
In the same order, the values of `CCc1cc(NC(=O)C(=O)N2C[C@@H](C)N(C(=O)C3(C(F)(F)F)CC3)C[C@@H]2c2ccc(C)cc2)cnc1N` [Compound 85, N-(6-amino-5-ethylpyridin-3-yl)-2-((2S,5R)-5-methyl-2-(p-tolyl)-4-(1-(trifluoromethyl)cyclopropanecarbonyl)piperazin-1-yl)-2-oxoacetamide] are 0.005 to 0.05 µM, 0.075 to 0.125 µM, “B (an IC50 ratio greater than or equal to 15 fold but lower than 30 fold)”, less than 0.1 µM and more than 0.05 µM.

Source of the values: patent publication US20250282749A1 (Tango Therapeutics, Inc., priority 2022, published 2025).
